The test deals with T1, Ubiquitin carboxyl-terminal hydrolase 30 (Homo sapiens, UniProt Q70CQ3).
T1 sequence (Q70CQ3 whole entry): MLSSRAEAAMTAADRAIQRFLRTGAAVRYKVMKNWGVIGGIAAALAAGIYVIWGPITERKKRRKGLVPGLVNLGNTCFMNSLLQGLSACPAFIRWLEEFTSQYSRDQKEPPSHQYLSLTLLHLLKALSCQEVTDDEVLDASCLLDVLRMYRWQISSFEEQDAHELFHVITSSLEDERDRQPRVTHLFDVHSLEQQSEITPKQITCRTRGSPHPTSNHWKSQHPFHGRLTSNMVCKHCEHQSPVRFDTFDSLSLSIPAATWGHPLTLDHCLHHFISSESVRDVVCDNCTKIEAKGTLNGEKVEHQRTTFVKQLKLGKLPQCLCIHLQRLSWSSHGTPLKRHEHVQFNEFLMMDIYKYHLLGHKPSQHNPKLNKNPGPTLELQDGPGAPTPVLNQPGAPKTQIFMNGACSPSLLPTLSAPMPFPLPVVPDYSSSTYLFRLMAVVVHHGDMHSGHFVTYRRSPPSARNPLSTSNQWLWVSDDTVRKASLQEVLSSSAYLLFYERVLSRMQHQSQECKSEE
The test can be described thus: Inhibition of untagged human USP30 catalytic domain (57 to 517 residues) expressed in Escherichia coli using TAMRA labeled ubiquitin peptide as substrate preincubated for 30 min followed by substrate addition and measured after 2 hrs by fluorescence polarization assay. (In general: Polarisation of emitted light reports the rotation of a fluorescent probe.)

Molecules are shown by their SMILES. Some results are limits rather than exact numbers.

Turning to `N#CN1CCC[C@](F)(C(=O)Nc2cc(-c3cccc(C(F)(F)F)c3)on2)C1`, the IC50 – broadly, the concentration that inhibits the measured activity by half – was less than 100 nM.

The values above are taken from ChEMBL document CHEMBL4418314, “Cyano-substituted heterocycles with activity as inhibitors of usp30” (2018).
